Columns and labels:
[1] = target: DNMT1 (Homo sapiens, UniProt P26358); test: DNMT1 activity assay (Poly(dI-dC) substrate, ^3H-SAM); format: biochemical; details: for EC50: read-out: EC50, activation of DNMT-1
Procedure: (§1) For the DNMT1 activity assay, the substrate solution, 0.001 mg/ml Poly(dI-dC):Poly(dI-dC) in 50 mM Tris-HCl, pH 7.5, 50 mM NaCl, 5 mM EDTA, 5 mM DTT, 1 mM PMSF, 5% glycerol, 0.01% Brij35, 1% DMSO was used. For the DNMT3a/3b activity assay, 0.0075 mg/ml Lambda DNA in 50 mM Tris-HCl, pH 7.5, 50 mM NaCl, 5 mM EDTA, 5 mM DTT, 1 mM PMSF, 5% glycerol, 1% DMSO, was used. The indicated DNMT1, DNMT3a, or DNMT3b was added to the appropriate substrate solution and gently mixed. […] The mixtures were first incubated for 15 min, then ^3H-SAM was added to the reaction mixture to initiate the reaction, and the mixture was incubated for 60 min at 30° C. Following incubation, the reaction mixture was finally transferred to filter-paper for detection of radioactivity counts.

[2] = Metabolite profiling of plasma and feces, oral dose; format: in vivo, rats
Procedure: Radiolabeled components in plasma and feces extracts were profiled and identified using radio-high performance liquid chromatography (HPLC) and high performance liquid chromatography/mass spectrometry (HPLC/MS) methods.
Plasma pools were prepared for Group 1 (75 mg/kg, [^14C]-25HC3S) samples collected at 2, 4, and 6 hours post-dose. […] One metabolite M29 was identified as 25-hydroxycholesterol with 37% ROI and a concentration of 1233 ng-equiv./g.
Feces pools were prepared for Group 2 (75 mg/kg, [^14C]-25HC3S) samples collected from 0 to 24, 24 to 48, 48 to 72, 72 to 96, 96 to 120, 120 to 144, and 144 to 168 hours post-dose. A total of eleven metabolites were identified. None of the metabolites were present at ≥5% of dose. Metabolites present at 2-5% of dose were M1 (4.5% of total dose and 1%-69% ROI), M3 (4.6% of total dose and 1%-44% ROI), M4 (2.0% of total dose and 0%-10% ROI), M8 (3.1% of total dose and 1%-46% ROI), […], and M30 (3.3% of total dose and 0%-5% ROI).

[3] = Metabolite profiling of plasma, urine, feces, intravenous dose; format: in vivo, Sprague Dawley rats; details: intravenous 10 mg/kg
Procedure: Nine male Sprague Dawley rats (Group 1) were designated for the pharmacokinetic phase, 3 male Sprague Dawley rats (Group 2) for the excretion mass balance phase, and 7 male Sprague Dawley rats (Group 3) and 9 male Long Evans rats (Group 4) for the tissue distribution phase. All animals received a single intravenous dose of [^14C]-25HC3S at 10 mg/kg and a target radioactivity of 225 μCi/kg. Blood samples were collected from all Group 1 animals at approximately 0.083, 0.25, 0.5, 1, 2, 4, 8, 12, 24, 48, and 72 hours post-dose. Urine and feces were collected from all Group 2 animals periodically through 168 hours post-dose. […] Following blood collection, animals were euthanized by CO2 inhalation and carcasses frozen in a dry ice/hexane bath for processing by quantitative whole body autoradiography. Whole blood, plasma, urine, feces, cage rinse, and cage wash were analyzed for total radioactivity by liquid scintillation counting.

[4] = target: DNMT3b (Homo sapiens, UniProt Q9UBC3); test: DNMT3b activity assay (Lambda DNA substrate, ^3H-SAM); format: biochemical
Procedure: as §1

[5] = target: DNMT3a (Homo sapiens, UniProt Q9Y6K1); test: DNMT3a activity assay (Lambda DNA substrate, ^3H-SAM); format: biochemical
Procedure: as §1

[6] = test system: DNMT1/3a/3b; test: Enzyme kinetic study, DNMT1/3a/3b activities overall; format: biochemical; details: for effect on enzymatic activities: controls
Procedure: as §1

[7] = Sprague Dawley, rat, in vivo, po, 75 mg/kg

Sequence of DNMT1 (P26358 whole entry): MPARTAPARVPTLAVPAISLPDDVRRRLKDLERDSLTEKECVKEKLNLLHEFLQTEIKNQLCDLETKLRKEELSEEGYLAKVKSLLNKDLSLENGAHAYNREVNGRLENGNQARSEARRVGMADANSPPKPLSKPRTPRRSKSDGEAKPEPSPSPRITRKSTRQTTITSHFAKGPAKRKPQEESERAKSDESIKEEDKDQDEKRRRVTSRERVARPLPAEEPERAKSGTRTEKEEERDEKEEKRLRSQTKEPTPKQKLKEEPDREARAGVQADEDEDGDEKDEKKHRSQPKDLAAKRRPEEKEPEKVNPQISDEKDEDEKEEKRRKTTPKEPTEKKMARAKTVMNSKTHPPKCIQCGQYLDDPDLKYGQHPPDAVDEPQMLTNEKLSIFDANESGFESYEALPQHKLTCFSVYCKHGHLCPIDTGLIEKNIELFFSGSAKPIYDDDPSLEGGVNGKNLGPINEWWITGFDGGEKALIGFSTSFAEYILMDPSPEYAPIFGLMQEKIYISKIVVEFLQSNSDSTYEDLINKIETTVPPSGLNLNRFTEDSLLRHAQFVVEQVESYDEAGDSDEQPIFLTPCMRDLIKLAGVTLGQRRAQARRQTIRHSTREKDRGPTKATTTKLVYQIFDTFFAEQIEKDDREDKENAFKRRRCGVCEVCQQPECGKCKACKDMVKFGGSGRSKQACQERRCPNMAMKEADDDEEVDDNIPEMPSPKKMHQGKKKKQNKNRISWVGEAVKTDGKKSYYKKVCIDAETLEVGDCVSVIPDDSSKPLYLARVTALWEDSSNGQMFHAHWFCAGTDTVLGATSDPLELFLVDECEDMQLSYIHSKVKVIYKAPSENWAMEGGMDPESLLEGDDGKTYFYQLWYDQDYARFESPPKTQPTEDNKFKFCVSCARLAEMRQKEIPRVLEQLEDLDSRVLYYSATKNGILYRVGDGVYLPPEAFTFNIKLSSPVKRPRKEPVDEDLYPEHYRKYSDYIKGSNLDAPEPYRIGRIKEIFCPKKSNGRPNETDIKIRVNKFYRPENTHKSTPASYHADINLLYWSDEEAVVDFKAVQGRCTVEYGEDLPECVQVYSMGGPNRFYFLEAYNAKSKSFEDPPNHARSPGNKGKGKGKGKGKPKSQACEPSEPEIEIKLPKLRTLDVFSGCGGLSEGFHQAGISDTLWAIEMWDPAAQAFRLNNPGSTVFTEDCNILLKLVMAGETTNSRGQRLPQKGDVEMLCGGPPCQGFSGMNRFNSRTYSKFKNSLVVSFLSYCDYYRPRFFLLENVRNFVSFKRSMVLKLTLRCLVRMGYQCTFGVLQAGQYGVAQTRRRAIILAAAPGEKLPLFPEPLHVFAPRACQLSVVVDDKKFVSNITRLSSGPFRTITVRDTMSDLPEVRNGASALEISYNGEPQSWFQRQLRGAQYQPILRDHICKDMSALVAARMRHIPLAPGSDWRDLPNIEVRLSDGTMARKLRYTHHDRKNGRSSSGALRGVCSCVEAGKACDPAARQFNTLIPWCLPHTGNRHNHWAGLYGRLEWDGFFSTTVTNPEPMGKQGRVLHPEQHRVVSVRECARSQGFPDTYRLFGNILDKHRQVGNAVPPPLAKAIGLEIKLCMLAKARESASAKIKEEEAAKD
Sequence of DNMT3a (Q9Y6K1 whole entry, looked up): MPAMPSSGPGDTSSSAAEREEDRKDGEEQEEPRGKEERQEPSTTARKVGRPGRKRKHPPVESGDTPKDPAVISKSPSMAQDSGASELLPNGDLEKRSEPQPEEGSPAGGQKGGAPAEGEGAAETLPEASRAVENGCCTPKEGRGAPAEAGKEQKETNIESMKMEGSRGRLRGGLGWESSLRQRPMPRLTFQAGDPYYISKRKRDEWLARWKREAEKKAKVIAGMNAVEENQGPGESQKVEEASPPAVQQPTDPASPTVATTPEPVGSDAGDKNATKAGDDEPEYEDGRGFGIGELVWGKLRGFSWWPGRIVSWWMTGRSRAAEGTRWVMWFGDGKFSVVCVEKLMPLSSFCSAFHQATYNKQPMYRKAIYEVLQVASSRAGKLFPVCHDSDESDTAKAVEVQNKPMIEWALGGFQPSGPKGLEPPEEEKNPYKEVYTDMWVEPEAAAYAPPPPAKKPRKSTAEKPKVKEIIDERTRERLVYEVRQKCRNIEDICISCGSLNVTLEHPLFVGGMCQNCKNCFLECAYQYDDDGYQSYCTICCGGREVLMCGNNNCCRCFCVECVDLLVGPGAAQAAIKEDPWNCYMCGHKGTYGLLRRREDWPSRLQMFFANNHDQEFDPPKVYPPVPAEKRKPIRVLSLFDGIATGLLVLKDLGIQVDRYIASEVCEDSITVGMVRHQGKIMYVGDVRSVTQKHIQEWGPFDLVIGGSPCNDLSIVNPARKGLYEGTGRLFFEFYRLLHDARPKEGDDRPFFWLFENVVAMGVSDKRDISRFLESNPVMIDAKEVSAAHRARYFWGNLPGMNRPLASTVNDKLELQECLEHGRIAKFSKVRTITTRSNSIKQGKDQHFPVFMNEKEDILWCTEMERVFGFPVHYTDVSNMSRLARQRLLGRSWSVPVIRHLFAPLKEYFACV

With `C[C@H](CCCC(C)(C)O)[C@H]1CC[C@H]2[C@@H]3CC=C4C[C@@H](O)CC[C@]4(C)[C@H]3CC[C@]12C` [25HC, 25-Hydroxycholesterol, reference compound] the “activation of DNMT-1 activity” value [1] was 8 fold, the EC50 [1] was 3.5 µM and the “% of total dose in feces” value [2, 7] was 1.9 % of total dose. The ROI in feces [2, 7] was 0-2%, the “relative observed intensity (ROI) in plasma” value ([2]; Sprague Dawley, rat, in vivo, po, 75 mg/kg, 2 h) was 37% and the “detection in plasma, urine, or feces samples” value [3] was “Neither desmosterol sulfate nor 25-hydroxycholesterol was detected”.
Compound `CC(CO)CCC[C@@H](C)[C@H]1CC[C@H]2[C@@H]3CC=C4C[C@@H](OS(=O)(=O)O)CC[C@]4(C)[C@H]3CC[C@]12C` (stereo partly drawn) [27HC3S, 5-cholesten-3β, 27-diol 3-sulfate] has an IC50 [1] of 3.58 µM, an IC50 [4] of 2.68 µM and an IC50 [5] of 8.88 µM.
In the case of `C[C@@H](CO)CCC[C@@H](C)[C@H]1CC[C@H]2[C@@H]3CC=C4C[C@@H](O)CC[C@]4(C)[C@H]3CC[C@]12C` [27HC, 27-Hydroxycholesterol], the EC50 [1] is reported as 33 µM and the “effect on other enzymes” value ([6]; enzymes other than DNMT-1) is reported as “no effect”.
Work on `Nc1ncnc2c1ncn2[C@@H]1O[C@H](CSCC[C@H](N)C(=O)O)[C@@H](O)[C@H]1O` [SAH, S-adenosyl homocysteine] yielded an inhibition at 1 µM ([1]; read-out: inhibition of DNMT1 activity) of 95%.
In the case of `CC(C)CCC[C@@H](C)[C@H]1CC[C@H]2[C@@H]3CC=C4C[C@@H](OS(=O)(=O)O)CC[C@]4(C)[C@H]3CC[C@]12C` [Xol3S, 5-cholesten-3β-ol, 3-sulfate, reference compound], the “effect on enzymatic activities” value [6] is reported as “did not significantly affect” and the IC50 [5] is reported as 82 µM.
In the case of `CC(C)CCC[C@@H](C)[C@H]1CC[C@H]2[C@@H]3CC=C4C[C@@H](O)CC[C@]4(C)[C@H]3CC[C@]12C` [Xol, Cholesterol], the “effect on enzymatic activities” value [6] is reported as “did not significantly affect”.
With desmosterol sulfate the “presence in plasma or feces samples” value ([2]; oral 75 mg/kg) was “not found” and the “detection in plasma, urine, or feces samples” value [3] was “Neither desmosterol sulfate nor 25-hydroxycholesterol was detected”.

Source: US20230218639A1, “USE OF OXYGENATED CHOLESTEROL SULFATES FOR TREATING NEUROLOGICAL CONDITIONS, NEURODEGENERATIVE DISEASES, AND ADDICTION” (Durect Corporation, priority 2020, published 2023)
